From patent publication US8148391B2 (Cephalon, Inc., priority 2006, dated 2012)
Like-named read-outs stand apart in the source and are kept apart here.

Legend:
[1] = biological target: T1, baculovirus-expressed ALK (Homo sapiens, UniProt Q9UM73); assay: ALK Kinase Assay (ELISA-type, time-resolved fluorescence); assay type: biochemical
T1 construct: host or cells: baculovirus expression system
Outline: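 Wells were coated with phospholipase C-γ at 10 μg/mL in Tris-buffered saline. Adding 30 ng/ml enzyme started the reaction, which ran at 37° C for 15 minutes before Eu-N1 PT66 antibody detection. Percent inhibition versus log10 concentration gave IC50 by variable-slope fit.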

[2] = biological target: T2, c-Met (cytoplasmic domain) (Homo sapiens, UniProt P08581); assay: c-Met Kinase Assay (same methods as for ALK, with modifications); assay type: biochemical
T2 construct: 10 ng/mL c-Met (cytoplasmic domain, Invitrogen Corporation #PV3143); purchased Invitrogen Corporation PV3143
Outline: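 IC50 values were fitted by variable-slope sigmoidal regression of percent inhibition against log compound concentration. Phosphorylation was read with Eu-N1 PT66 antibody after a 15 min, 37 °C reaction. The reaction was initiated with 10 ng/mL c-Met cytoplasmic domain on wells coated with 10 μg/mL PLC-γ in TBS.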

[3] = 1 μM ATP (Km level), 30 ng/ml ALK, 37° C., 15 minutes, read-out: ALK Activity (ALK kinase inhibition, IC50 class)
[4] = 1 μM ATP (Km level), 10 ng/mL c-Met, read-out: cMet Activity (c-Met kinase inhibition, IC50 class)
[5] = 1 μM ATP (Km level), read-out: ALK Activity (ALK Kinase Inhibition, IC50)
[6] = 1 μM ATP (Km level), read-out: cMet Activity (c-Met Kinase Inhibition, IC50)
[7] = ALK kinase inhibition, 1 μM ATP, read-out: ALK Activity
[8] = c-Met kinase inhibition, 1 μM ATP, read-out: cMet Activity
[9] = ALK kinase inhibition, 1 μM ATP (Km level), read-out: ALK Activity
[10] = c-Met kinase inhibition, 1 μM ATP (Km level), read-out: cMet Activity

T1 sequence (Q9UM73 19-1620): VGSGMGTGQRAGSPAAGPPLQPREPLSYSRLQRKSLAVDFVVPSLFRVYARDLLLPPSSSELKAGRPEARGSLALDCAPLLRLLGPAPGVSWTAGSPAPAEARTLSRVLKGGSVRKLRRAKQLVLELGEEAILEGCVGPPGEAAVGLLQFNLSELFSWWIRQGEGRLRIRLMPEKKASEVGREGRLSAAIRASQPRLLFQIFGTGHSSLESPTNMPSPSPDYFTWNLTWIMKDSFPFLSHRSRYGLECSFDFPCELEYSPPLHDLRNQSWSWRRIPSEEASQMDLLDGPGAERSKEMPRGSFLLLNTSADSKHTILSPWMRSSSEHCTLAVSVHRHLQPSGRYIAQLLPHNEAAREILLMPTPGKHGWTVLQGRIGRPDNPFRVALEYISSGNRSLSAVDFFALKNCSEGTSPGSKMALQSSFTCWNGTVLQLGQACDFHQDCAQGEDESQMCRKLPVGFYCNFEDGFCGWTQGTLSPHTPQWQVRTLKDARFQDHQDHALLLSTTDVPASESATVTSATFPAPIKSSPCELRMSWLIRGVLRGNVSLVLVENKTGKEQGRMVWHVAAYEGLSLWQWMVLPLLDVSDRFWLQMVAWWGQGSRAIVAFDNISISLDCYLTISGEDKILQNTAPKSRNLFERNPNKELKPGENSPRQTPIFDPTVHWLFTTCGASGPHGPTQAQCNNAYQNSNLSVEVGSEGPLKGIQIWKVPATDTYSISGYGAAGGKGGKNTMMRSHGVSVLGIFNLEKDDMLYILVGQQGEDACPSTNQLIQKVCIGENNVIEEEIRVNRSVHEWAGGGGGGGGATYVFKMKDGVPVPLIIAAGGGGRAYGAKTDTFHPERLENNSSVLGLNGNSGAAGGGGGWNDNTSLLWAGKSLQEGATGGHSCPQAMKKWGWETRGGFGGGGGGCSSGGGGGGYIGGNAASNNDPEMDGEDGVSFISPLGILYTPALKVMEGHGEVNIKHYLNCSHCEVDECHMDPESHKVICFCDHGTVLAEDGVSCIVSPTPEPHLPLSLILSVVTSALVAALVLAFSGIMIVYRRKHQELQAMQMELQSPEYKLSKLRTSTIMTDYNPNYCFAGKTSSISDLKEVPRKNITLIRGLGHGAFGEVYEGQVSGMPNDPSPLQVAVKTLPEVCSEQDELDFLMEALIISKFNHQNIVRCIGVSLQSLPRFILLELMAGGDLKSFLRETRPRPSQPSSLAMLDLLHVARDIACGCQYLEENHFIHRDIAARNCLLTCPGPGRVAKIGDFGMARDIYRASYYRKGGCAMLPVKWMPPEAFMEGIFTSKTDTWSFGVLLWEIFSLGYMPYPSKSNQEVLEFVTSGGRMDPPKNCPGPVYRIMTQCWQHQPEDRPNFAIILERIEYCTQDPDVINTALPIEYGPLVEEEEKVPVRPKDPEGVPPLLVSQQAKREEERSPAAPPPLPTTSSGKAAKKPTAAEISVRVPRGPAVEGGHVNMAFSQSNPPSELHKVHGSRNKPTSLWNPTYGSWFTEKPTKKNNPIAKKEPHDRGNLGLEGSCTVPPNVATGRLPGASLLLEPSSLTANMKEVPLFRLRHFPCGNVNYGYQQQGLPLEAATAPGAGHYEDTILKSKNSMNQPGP
T2 sequence (P08581 956-1390 limits assumed): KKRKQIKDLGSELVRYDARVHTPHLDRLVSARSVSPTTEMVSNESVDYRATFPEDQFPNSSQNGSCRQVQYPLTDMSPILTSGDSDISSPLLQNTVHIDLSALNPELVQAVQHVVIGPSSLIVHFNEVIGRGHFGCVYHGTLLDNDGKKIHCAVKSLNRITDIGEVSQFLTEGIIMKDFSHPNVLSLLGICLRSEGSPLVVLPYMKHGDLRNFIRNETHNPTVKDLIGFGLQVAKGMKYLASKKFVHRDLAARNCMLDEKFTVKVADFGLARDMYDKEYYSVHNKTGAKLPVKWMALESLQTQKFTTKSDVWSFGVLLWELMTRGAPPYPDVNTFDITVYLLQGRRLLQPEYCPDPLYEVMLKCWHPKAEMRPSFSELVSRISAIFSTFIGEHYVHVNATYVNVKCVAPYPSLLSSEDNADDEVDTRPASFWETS

CCN1C(=O)CCCc2ccc(Nc3ncc(Cl)c(Nc4ccccc4CCC#N)n3)cc21 [Example 1232, 3-{2-[5-Chloro-2-(1-ethyl-2-oxo-2,3,4,5-tetrahydro-1H-1-benzazepin-8-ylamino)-pyrimidin-4-ylamino]-phenyl}-propionitrile]
IC50 [1, 3]: 100 to 1000 nM | IC50 [2, 4]: 1000 to 10000 nM

CNC(=O)c1cc(OC)ccc1Nc1nc(Nc2ccc3c(c2)CCN(CCOC)CC3)ncc1Cl [Example 618, 2-{5-Chloro-2-[3-(2-methoxy-ethyl)-2,3,4,5-tetrahydro-1H-benzo[d]azepin-7-ylamino]-pyrimidin-4-ylamino}-5-methoxy-N-methyl-benzamide]
IC50 [1, 5]: < 100 nM | IC50 [2, 6]: < 100 nM

CNC(=O)c1c(F)cccc1Nc1nc(Nc2ccc3c(c2)CCOC(=O)N3C)ncc1Cl [Example 1756, 2-[5-Chloro-2-(5-methyl-6-oxo-5,6,8,9-tetrahydro-7-oxa-5-aza-benzocyclohepten-2-ylamino)-pyrimidin-4-ylamino]-6-fluoro-N-methyl-benzamide]
IC50 [1, 7]: < 100 nM | IC50 [2, 8]: < 100 nM

COc1c(Nc2ncc(Cl)c(N[C@H]3[C@@H](C(N)=O)[C@@H]4C=C[C@H]3C4)n2)ccc2c1CCC(=O)CC2 [Example 869, (1S,2S,3R,4R)-3-[5-Chloro-2-(1-methoxy-7-oxo-6,7,8,9-tetrahydro-5H-benzocyclohepten-2-ylamino)-pyrimidin-4-ylamino]-bicyclo[2.2.1]hept-5-ene-2-carboxylic acid amide]
IC50 [1, 5]: < 100 nM | IC50 [2, 6]: > 10000 nM

CS(=O)(=O)N[C@@H]1CCCC[C@H]1Nc1nc(Nc2ccc3c(c2)CNC(=O)NC3)ncc1Cl [Example 226, N-{(1R,2R)-2-[5-Chloro-2-(3-oxo-2,3,4,5-tetrahydro-1H-benzo[e][1,3]diazepin-7-ylamino)-pyrimidin-4-ylamino]-cyclohexyl}-methanesulfonamide]
IC50 [1, 9]: < 100 nM | IC50 [2, 10]: 1000 to 10000 nM

COc1cc2c(cc1Nc1ncc(Cl)c(Nc3ccc(N(C)C)cc3OC)n1)CCN(CCN1CCOCC1)CC2 [Example 1537, 5-Chloro-N(4)-(4-dimethylamino-2-methoxy-phenyl)-N(2)-[8-methoxy-3-(2-morpholin-4-yl-ethyl)-2,3,4,5-tetrahydro-1H-3-benzazepin-7-yl]-pyrimidine-2,4-diamine]
IC50 [1, 7]: < 100 nM | IC50 [2, 8]: > 10000 nM

COc1cc2c(cc1Nc1ncc(Cl)c(Nc3ccccc3OC)n1)CCN(CCS(C)(=O)=O)CC2 [Example 1132, 5-Chloro-N*2*-[3-(2-methanesulfonyl-ethyl)-8-methoxy-2,3,4,5-tetrahydro-1H-benzo[d]azepin-7-yl]-N*4*-(2-methoxy-phenyl)-pyrimidine-2,4-diamine]
IC50 [1, 3]: < 100 nM | IC50 [2, 4]: > 10000 nM

CNC(=O)c1ccccc1Nc1nc(Nc2ccc3c(c2)C(C)(C)NC(=O)CC3)ncc1Cl [Example 1833, 2-(5-Chloro-2-(1,1-dimethyl-3-oxo-2,3,4,5-tetrahydro-1H-benzo[c]azepin-8-ylamino)pyrimidin-4-ylamino)-N-methylbenzamide]
IC50 [1, 7]: < 100 nM | IC50 [2, 8]: 100 to 1000 nM

C=CCOc1cc(N(C)C)cc(F)c1Nc1nc(Nc2ccc3c(c2)CCOC(=O)N3C)ncc1Cl [Example 1709, 2-[4-(2-Allyloxy-4-dimethylamino-6-fluoro-phenylamino)-5-chloro-pyrimidin-2-ylamino]-5-methyl-8,9-dihydro-5H-7-oxa-5-aza-benzocyclohepten-6-one]
IC50 [1, 7]: < 100 nM | IC50 [2, 8]: 100 to 1000 nM

COCCN1CCc2ccc(Nc3ncc(Cl)c(N[C@@H]4CCCC[C@H]4O)n3)cc2CC1 (relative stereo) [Example 318, trans-2-{5-Chloro-2-[3-(2-methoxy-ethyl)-2,3,4,5-tetrahydro-1H-benzo[d]azepin-7-ylamino]-pyrimidin-4-ylamino}-cyclohexanol]
IC50 [1, 9]: 1000 to 10000 nM | IC50 [2, 10]: > 10000 nM

CN1C(=O)OCCc2cc(Nc3ncc(Cl)c(Nc4ccccc4-n4cccn4)n3)ccc21 [Example 1766, 2-[5-Chloro-4-(2-pyrazol-1-yl-phenylamino)-pyrimidin-2-ylamino]-5-methyl-8,9-dihydro-5H-7-oxa-5-aza-benzocyclohepten-6-one]
IC50 [1, 7]: < 100 nM | IC50 [2, 8]: 100 to 1000 nM

CCN1CCc2ccc(Nc3ncc(Cl)c(NCC(C)(C)NS(C)(=O)=O)n3)cc2CC1 [Example 304, N-{2-[5-Chloro-2-(3-ethyl-2,3,4,5-tetrahydro-1H-benzo[d]azepin-7-ylamino)-pyrimidin-4-ylamino]-1,1-dimethyl-ethyl}-methanesulfonamide]
IC50 [1, 9]: 100 to 1000 nM | IC50 [2, 10]: 1000 to 10000 nM

C#CCNC(=O)c1cc(F)cc(F)c1Nc1nc(Nc2ccc3c(c2)N(C(=O)N2CCCC2)CCCC3(C)C)ncc1Cl [Example 1622, 2-{5-Chloro-2-[5,5-dimethyl-1-(pyrrolidine-1-carbonyl)-2,3,4,5-tetrahydro-1H-benzo[b]azepin-8-ylamino]-pyrimidin-4-ylamino}-3,5-difluoro-N-prop-2-ynyl-benzamide]
IC50 [1, 7]: 1000 to 10000 nM | IC50 [2, 8]: 100 to 1000 nM

COc1cc2c(cc1Nc1ncc(Cl)c(Nc3ccc(N4CCOCC4)cc3OC)n1)CCN(CCNC(C)=O)CC2 [Example 257, N-(2-{7-[5-Chloro-4-(2-methoxy-4-morpholin-4-yl-phenylamino)-pyrimidin-2-ylamino]-8-methoxy-1,2,4,5-tetrahydro-benzo[d]azepin-3-yl}-ethyl)-acetamide]
IC50 [1, 9]: < 100 nM | IC50 [2, 10]: > 10000 nM

CCN1C(=O)CCCc2cc(Nc3ncc(Cl)c(N[C@@H]4[C@H]5CC[C@H](C5)[C@@H]4C(N)=O)n3)c(OC)cc21 (relative stereo) [Example 136, (2-exo,3-exo)-3-[5-Chloro-2-(1-ethyl-8-methoxy-2-oxo-2,3,4,5-tetrahydro-1H-benzo[b]azepin-7-ylamino)-pyrimidin-4-ylamino]-bicyclo[2.2.1]heptane-2-carboxylic acid amide]
IC50 [1, 9]: < 100 nM | IC50 [2, 10]: > 10000 nM

CNC(=O)c1scc(C)c1Nc1nc(Nc2ccc3c(c2)CCOC(=O)N3C)ncc1Cl [Example 1759, 3-[5-Chloro-2-(5-methyl-6-oxo-5,6,8,9-tetrahydro-7-oxa-5-aza-benzocyclohepten-2-ylamino)-pyrimidin-4-ylamino]-4-methyl-thiophene-2-carboxylic acid methylamide]
IC50 [1, 7]: 1000 to 10000 nM | IC50 [2, 8]: < 100 nM

COc1cc2c(cc1Nc1ncc(Cl)c(Nc3ccccc3-n3cccn3)n1)CCC(N1CCOCC1)CC2 (centres unmarked) [Example 1052, 5-Chloro-N*2*-(3-methoxy-7-morpholin-4-yl-6,7,8,9-tetrahydro-5H-benzocyclohepten-2-yl)-N*4*-(2-pyrazol-1-yl-phenyl)-pyrimidine-2,4-diamine]
IC50 [1, 3]: < 100 nM | IC50 [2, 4]: > 10000 nM

CCN1C(=O)CNCc2cc(OC)c(Nc3ncc(Cl)c(Nc4ccccc4S(=O)(=O)C(C)C)n3)cc21 [Example 729, 8-{5-Chloro-4-[2-(propane-2-sulfonyl)-phenylamino]-pyrimidin-2-ylamino}-1-ethyl-7-methoxy-1,3,4,5-tetrahydro-benzo[e][1,4]diazepin-2-one]
IC50 [1, 5]: < 100 nM | IC50 [2, 6]: 1000 to 10000 nM

CCN1C(=O)C(NC(=O)CN(C)C)CCc2c1ccc(Nc1ncc(Cl)c(Nc3ccccc3S(=O)(=O)N(C)C)n1)c2OC (centres unmarked) [Example 1356, N-{7-[5-Chloro-4-(2-dimethylsulfamoyl-phenylamino)-pyrimidin-2-ylamino]-1-ethyl-6-methoxy-2-oxo-2,3,4,5-tetrahydro-1H-benzo[b]azepin-3-yl}-2-dimethylamino-acetamide]
IC50 [1, 3]: < 100 nM | IC50 [2, 4]: > 10000 nM
